Data reported in patent US20050180971A1, “Cancer therapy” (priority 2002, published 2005).
Values joined by “and” are separate entries in the source; they are usually repeats but may differ in a detail not shown here. Identical values can stand only once.

System: AE 17 cells
Assay: Murine mesothelioma model: subcutaneous AE 17 tumor challenge, tumor area by callipers
Type: in vivo, C57/B16 mice
From the text: Malignant mesothelioma in humans is an asbestos induced, incurable tumor that has a particularly poor prognosis. Average time from diagnosis to death being only eight months (Musk and Woodward, 1982). A murine model was developed by researchers in the Department of Medicine at the University of Western Australia to further the development of suitable interventions (Davies et al., 1992).
Day 0 was defined as the day of tumor cell inoculation with 1×10^6 AE 17 cells subcutaneously. The AE 17 tumor cell line was derived from C57/B16 mice and inoculated back into the same strain. This point will be referred to as a tumor challenge henceforth. Three groups of 5 mice were all challenged in this way. Subsequently the first of the groups was given a single ip dose of vinblastine (Vb) at 6 mg/kg body weight exactly 14 days post tumor challenge (Vb 19/11/01 group). The second group of 5 mice were similarly treated the next day; 15 days post tumor challenge (Vb 20/11/01). The third group received no Vb treatment (No treatment/control group).
Tumor measurements were taken from Day 14 onwards with callipers (2 diameters at right angles to each other in mm's). These two diameters are then multiplied together to give a mm^2 value that is known from past experience to correlate well with both tumor volume and tumor mass.

[1] = single ip Vb 6 mg/kg on day 14 post tumor challenge, measured day 14 (19-Nov)
[2] = single ip Vb 6 mg/kg on day 14 post tumor challenge, measured day 15 (20-Nov)
[3] = single ip Vb 6 mg/kg on day 14 post tumor challenge, measured day 18 (23-Nov)
[4] = single ip Vb 6 mg/kg on day 14 post tumor challenge, measured day 21 (26-Nov)
[5] = single ip Vb 6 mg/kg on day 14 post tumor challenge, measured day 24 (29-Nov)
[6] = single ip Vb 6 mg/kg on day 14 post tumor challenge, measured day 25 (30-Nov)
[7] = single ip Vb 6 mg/kg on day 14 post tumor challenge, measured day 28 (3-Dec)
[8] = single ip Vb 6 mg/kg on day 14 post tumor challenge, measured day 30 (5-Dec)
[9] = single ip Vb 6 mg/kg on day 15 post tumor challenge, measured day 14 (19-Nov), before treatment
[10] = single ip Vb 6 mg/kg on day 15 post tumor challenge, measured day 15 (20-Nov)
[11] = single ip Vb 6 mg/kg on day 15 post tumor challenge, measured day 18 (23-Nov)
[12] = single ip Vb 6 mg/kg on day 15 post tumor challenge, measured day 21 (26-Nov)
[13] = single ip Vb 6 mg/kg on day 15 post tumor challenge, measured day 24 (29-Nov)
[14] = single ip Vb 6 mg/kg on day 15 post tumor challenge, measured day 25 (30-Nov)
[15] = single ip Vb 6 mg/kg on day 15 post tumor challenge, measured day 28 (3-Dec)
[16] = single ip Vb 6 mg/kg on day 15 post tumor challenge, measured day 30 (5-Dec)

Question: What does the source list for `CC[C@]1(O)C[C@@H]2CN(CCc3c([nH]c4ccccc34)[C@@](C(=O)OC)(c3cc4c(cc3OC)N(C)[C@H]3[C@@](O)(C(=O)OC)[C@H](OC(C)=O)[C@]5(CC)C=CCN6CC[C@]43[C@@H]65)C2)C1` [Vb, vinblastine]?
Answer: mice with significant tumor development (Vb treatment day 15 post challenge): 4/5; protection from tumor development (single Vb treatment day 14 post challenge): heavily protected from tumor development; effectiveness (single Vb treatment day 14 post challenge, 5 mice): 80%; Tumor area (2 diameters multiplied), individual animal (single ip Vb 6 mg/kg on day 14 post tumor challenge, measured (7-Dec)): 0 mm^2 (4×) and 70 mm^2; Tumor area (2 diameters multiplied), individual animal [1]: 4 mm^2 (4×) and 0.5 mm^2; Tumor area, group mean [1]: 3.3 mm^2; Tumor area (2 diameters multiplied), individual animal [2]: 0.5 mm^2 (3×) and 0 mm^2 (2×); Tumor area, group mean [2]: 0.3 mm^2; Tumor area (2 diameters multiplied), individual animal [3]: 0 mm^2 (2×) and 2 mm^2 and 1 mm^2 and 0.5 mm^2; Tumor area, group mean [3]: 0.7 mm^2; Tumor area (2 diameters multiplied), individual animal [4]: 0.5 mm^2 (2×) and 1 mm^2 and 0 mm^2 (2×); Tumor area, group mean [4]: 0.4 mm^2; Tumor area (2 diameters multiplied), individual animal [5]: 0 mm^2 (3×) and 6 mm^2 and 4 mm^2; Tumor area, group mean [5]: 2 mm^2; Tumor area (2 diameters multiplied), individual animal [6]: 0 mm^2 (3×) and 1 mm^2 and 0.5 mm^2; Tumor area, group mean [6]: 0.3 mm^2; Tumor area (2 diameters multiplied), individual animal [7]: 0 mm^2 (3×) and 0.5 mm^2 and 40 mm^2; Tumor area, group mean [7]: 8.1 mm^2; Tumor area (2 diameters multiplied), individual animal [8]: 0 mm^2 (4×) and 70 mm^2; Tumor area, group mean [8]: 14 mm^2; Tumor area, group mean (single ip Vb 6 mg/kg on day 14 post tumor challenge, measured day 32 (7-Dec)): 14 mm^2; Tumor area (2 diameters multiplied), individual animal (single ip Vb 6 mg/kg on day 15 post tumor challenge, measured (7-Dec)): 81 mm^2 and 0.5 mm^2 and 90 mm^2 (2×); Tumor area (2 diameters multiplied), individual animal [9]: 0.5 mm^2 (3×) and 4 mm^2 and 9 mm^2; Tumor area, group mean [9]: 2.9 mm^2; Tumor area (2 diameters multiplied), individual animal [10]: 1 mm^2 and 0.5 mm^2 (3×) and 0 mm^2; Tumor area, group mean [10]: 0.5 mm^2; Tumor area (2 diameters multiplied), individual animal [11]: 4 mm^2 and 0.5 mm^2 (2×) and 0 mm^2 (2×); Tumor area, group mean [11]: 1 mm^2; Tumor area (2 diameters multiplied), individual animal [12]: 9 mm^2 and 0.5 mm^2 (3×) and 8 mm^2; Tumor area, group mean [12]: 3.7 mm^2; Tumor area (2 diameters multiplied), individual animal [13]: 16 mm^2 and 0.5 mm^2 and 25 mm^2 and 12 mm^2; Tumor area, group mean [13]: 13.4 mm^2; Tumor area (2 diameters multiplied), individual animal [14]: 20 mm^2 and 0.5 mm^2 and 30 mm^2 and 25 mm^2; Tumor area, group mean [14]: 18.9 mm^2; Tumor area (2 diameters multiplied), individual animal [15]: 42 mm^2 and 0.5 mm^2 and 56 mm^2 and 90 mm^2; Tumor area, group mean [15]: 47.1 mm^2; Tumor area (2 diameters multiplied), individual animal [16]: 56 mm^2 and 0.5 mm^2 and 90 mm^2 (2×); Tumor area, group mean [16]: 59.1 mm^2; Tumor area, group mean (single ip Vb 6 mg/kg on day 15 post tumor challenge, measured day 32 (7-Dec)): 65.4 mm^2
